Assay results published in EPA's ToxValDB 9.5 (doi:10.2903/j.efsa.2016.4604).
Converted amounts (≈) assume the structure as drawn.

Legend:
Cyprinus carpio = conditions: acute; duration: 96 hours; mortality
Folsomia candida = conditions: chronic/long-term; duration: 28 days
Tagia sp. = conditions: for NOEC: chronic/long-term, duration: 8 weeks
Apis mellifera = conditions: acute, mortality
Canidae = conditions: chronic; duration: 1 years; oral; diet; Dog Other; histopathology: nonneoplastic
Colinus virginianus = conditions: acute, oral, mortality
Daphnia magna = conditions: chronic/long-term; duration: 21 days; mobility
Pimephales promelas = conditions: chronic/long-term; duration: 35 days; body weight
Typhlodromus pyri = experiment: LR50; higher = less toxic; conditions: not reported; mortality

SMILES | LC50 (Cyprinus carpio) | NOEC (Folsomia candida) | NOEC (Tagia sp.) | LD50 (Apis mellifera; duration: 48 hours, dermal) | LD50 (Apis mellifera; oral, unspecified) | NOAEL (Canidae) | LD50 (Colinus virginianus; diet) | LD50 (Colinus virginianus) | NOEC (Daphnia magna) | NOEC (Pimephales promelas) | NOAEL (Rattus norvegicus; acute, oral, F, clinical signs) | LD50 (Rattus norvegicus; acute, oral, mortality) | NOAEL (Rattus norvegicus; chronic, duration: 2 years, oral, diet, histopathology: nonneoplastic) | NOAEL (Rattus norvegicus; reproduction developmental, M, body weight) | LC50 (Tagia sp.; acute, duration: 14 days, mortality) | LR50 (Typhlodromus pyri)
CC(=O)c1ccccc1NC(=O)c1c(C)nn(C)c1F | > 0.799 µg/mL | 1000 mg/kg | 500 mg/kg |  |  |  |  |  |  |  |  |  |  |  |  | 
Cc1nn(C)c(F)c1C(=O)Nc1ccccc1C(C)CC(C)(C)O (configuration not stated) | > 15.7 µg/mL | 1000 mg/kg | 1000 mg/kg |  |  |  |  |  |  |  |  |  |  |  |  | 
Cc1nn(C)c(F)c1C(=O)Nc1ccccc1C(C)CC(C)C (configuration not stated) [Penflufen] | 0.103 µg/mL (≈ 0.325 µM) | 231 mg/kg | 33 mg/kg | > 100 µg/piece | > 105 µg/piece | 7.7 mg/kg-day | > 1700 mg/kg-day | > 4000 mg/kg-day | 1.53 mg/L | 23.4 µg/L | 50 mg/kg-day | > 2000 mg/kg-day | 4 mg/kg-day | 58 mg/kg-day | > 1000 mg/kg | > 250 g/ha
